This assay addresses T1, PRMT5/MEP50 (Homo sapiens, UniProt O14744).
T1 construct: Expressed full-length human Flag-PRMT5/6His-MeP50 protein complex was purified; made in house; host or cells: Spodoptera frugiperda (SF9) insect cells, baculovirus (pDEST8)
As to the kind of experiment: PRMT5 Biochemical Assay (PRMT5/MEP50 enzyme assay on peptide substrate, 3H-SAM Flashplate). Particulars: PRMT5/MEP50 4 nM, 3H-SAM 75 nM, peptide 40 nM, 30 min preincubation at 25 degrees Celsius. As for the experimental part:
• Mobile phase A: 4 L H2O\1.5 ml TFA; Mobile phase B: 4 L ACN\0.75 ml TFA • Column: HPLC-D: Innovation C18 UPLC Column 2.1×30 mm, 2.6 um • HPLC-E: Xtimate C18 2.1*30 mm*3 um • HPLC-H: Innovation C18 UPLC Column 2.1×30 mm, 2.6 um • Column temperature: 50° C.; Wavelength: 220 nm & 254 nm & 215 nm General HPLC Conditions (Basic) • Mobile phase A: 4 L H2O\2 ml NH4OH; Mobile phase B: Acetonitrile • Column: HPLC-B: XBridge C18 2.1*50 mm, 5 um • HPLC-C: Xbridge shield RP18 2.1*50 mm, 5 u • Column temperature: 30° C.; Wavelength: 220 nm & 254 nm & 215 nm General HPLC Conditions (Neutral) • Mobile phase A: H2O; Mobile phase B: Acetonitrile • Column: HPLC-B: XBridge C18 2.1*50 mm, 5 um • HPLC-C: Xbridge shield RP18 2.1*50 mm, 5 um • Column temperature: 30° C.; Wavelength: 220 nm & 254 nm & 215 nm Method A (0-30AB_6MIN) Flow Rate: 0.8 ml/min Gradient: 0% B to 30% B in 4.2 min, holding 30% B for 1 min, 30% B to 0% B in 0.01 min, holding 0% B for 1.09 min and then end. Method B (0-60AB_6MIN) • Flow Rate: 0.8 ml/min • Gradient: 0% B to 60% B in 4.2 min, holding 60% B for 1 min, 60% B to 0% B in 0.01 min, holding 0% B for 1.09 min and then end. Method C (10-80AB_6MIN) • Flow Rate: 0.8 ml/min • Gradient: 10% B to 80% B in 4.2 min, holding 80% B for 1 min, 80% B to 10% B in 0.01 min, holding 10% B for 1.09 min and then end. […]

One may read the IC50 as the concentration at which inhibition is half-maximal.

T1 sequence (O14744 with tags, fused parts or gaps): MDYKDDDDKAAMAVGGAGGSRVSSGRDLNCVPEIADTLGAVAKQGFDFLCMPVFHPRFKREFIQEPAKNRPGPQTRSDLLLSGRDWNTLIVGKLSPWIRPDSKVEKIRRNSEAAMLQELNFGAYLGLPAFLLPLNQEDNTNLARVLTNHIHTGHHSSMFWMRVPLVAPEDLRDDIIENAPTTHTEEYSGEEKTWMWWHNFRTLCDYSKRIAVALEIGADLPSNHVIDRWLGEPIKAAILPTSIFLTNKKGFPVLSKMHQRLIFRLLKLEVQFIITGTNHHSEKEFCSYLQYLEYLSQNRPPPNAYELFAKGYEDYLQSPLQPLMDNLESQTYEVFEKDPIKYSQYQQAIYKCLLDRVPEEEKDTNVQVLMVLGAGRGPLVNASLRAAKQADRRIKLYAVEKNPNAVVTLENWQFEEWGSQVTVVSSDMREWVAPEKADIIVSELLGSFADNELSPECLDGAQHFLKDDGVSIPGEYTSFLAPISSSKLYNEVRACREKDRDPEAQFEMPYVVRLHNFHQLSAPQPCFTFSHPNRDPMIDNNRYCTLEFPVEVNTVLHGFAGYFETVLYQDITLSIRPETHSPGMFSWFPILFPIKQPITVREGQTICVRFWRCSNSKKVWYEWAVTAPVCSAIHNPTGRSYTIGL
T1 sequence (Q9BQA1 with tags, fused parts or gaps partner limits assumed): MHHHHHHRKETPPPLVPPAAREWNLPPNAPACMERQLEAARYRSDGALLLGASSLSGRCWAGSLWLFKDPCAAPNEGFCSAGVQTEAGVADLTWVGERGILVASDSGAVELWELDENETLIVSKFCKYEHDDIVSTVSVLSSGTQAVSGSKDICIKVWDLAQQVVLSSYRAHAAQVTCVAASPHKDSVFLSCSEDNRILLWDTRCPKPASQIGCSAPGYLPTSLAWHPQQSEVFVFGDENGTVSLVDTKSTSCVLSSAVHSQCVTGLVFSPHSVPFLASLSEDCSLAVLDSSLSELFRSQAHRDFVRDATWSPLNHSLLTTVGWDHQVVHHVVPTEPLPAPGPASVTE

In the case of `O=C(NC1CCOCC1)c1cc(=O)n(CC(O)CN2CCc3ccccc3C2)cn1` (centres unmarked) [Compound 34], the IC50 was 1 to 10 µM.
Turning to `O=C(NC1CCOCC1)c1ccn(CC(O)CN2CCc3ccccc3C2)c(=O)c1` (centres unmarked) [Compound 33], the IC50 lay in the range of 0.101 to 1 µM.

The record behind these values is patent publication US9611257B2, “PRMT5 inhibitors and uses thereof” (Epizyme, Inc., priority 2012, dated 2017).
